Laboratory results from patent publication US20050267016A1, “CD-10 activated prodrug compounds” (priority 2001, published 2005).
pIC50: −log10 of the molar value. Where two headings read alike, the source gives them in different places. Marks after values point to notes of the source that are not given here.

Columns and labels:
Namalwa cells (CD10pos) = test: cells; format: cell-based; conditions: for pIC50: 24 hours; for Ratio Ball-1:Namalwa: ratio of IC50
Method: Suspension cells, BALL-1, Ramos and Namalwa cells were cultured in RPMI media containing 10% heat inactivated fetal calf serum (FCS). On the day of the study, the cells were collected, washed and resuspended at a concentration of 0.5×10^6 cells/ml in RPMI containing 10% FCS. 100 µl of cell suspension was added to 96 well plates. […] Finally 10 μl of a 100 μCi/ml ^3H-thymidine was added per well and the plates were incubated for 24 hours. The plates were harvested using a 96 well Harvester (Packard Instruments) and counted on a Packard Top Count counter. Four parameter logistic curves were fitted to the ^3H-thymidine incorporation as a function of drug molarity using Prism software to determine IC50 values.

[1] = Pharmacokinetic/metabolism study, single IV bolus; conditions: for Major Plasma Metabolite: mice; for Plasma AUC0-6 hr of AL-Dox or AG-Dox* / Plasma AUC0-6 hr of L-Dox or G-Dox*: single IV bolus approximately 100 μmol/Kg; for Plasma AUC0-6 hr of Dox: single IV bolus approximately 100 μmol/Kg of prodrug
Method: Plasma was obtained from three individual animals in each group at 5 minutes, 1, 2, 4, or 6 hr.

[2] = Metabolism and clearance in normal mice (plasma and urine, LC MS/MS); format: in vivo; conditions: for dose excreted: iv, 117 mg/kg
Method: The metabolism and clearance of Suc-Ile-Ala-Leu-Dox was studied in normal mice. The mice were administered Suc-Ile-Ala-Leu-Dox at a single intravenous bolus dose of 117 mg/kg. Plasma samples were obtained at 1 and 4 hours. Plasma samples of 100 μl were transferred to microcentrifuge tubes (1.5 mL) and an internal standard of daunorubicin (20 μL at 0.5 mg/ml) was added together with acetonitrile (400 μl). The tubes were capped and briefly vortexed followed by centrifugation at 14,000 rpm. 420 μl from each tube was removed and dried in vacuo. Each sample was reconstituted in 65 μl 20 mM aqueous ammonium formate pH 4.5 buffer (AF) containing acetonitrile (20%) prior to analysis by reverse phase liquid chromatography in combination with tandem mass spectrometry (LC MS/MS).
Urine was collected at 2 and 24 hours post administration from pairs of mice in metabolic cages. Urine samples were diluted with AF containing acetonitrile (20%) to give a target analyte concentration within the practical range of the LC MS/MS assay. 30 μl of each diluted sample was placed in an Eppendorf tube (1.5 ml) and an internal standard of daunorubicin (20 μL at 0.5 mg/ml) was added together with 50 μl of AF containing acetonitrile (20%). Each sample was then analyzed by LC MS/MS.
An Agilent HP1100 HPLC with DAD detector and Chemstation software was coupled to a PE Sciex API 365 mass spectrometer with an electrospray ion source. HPLC was performed on a TSK-Gel Super ODS, […], 4.6×50 mm (TosoHaas) reversed phase column equipped with a […] C18 guard disc (Higgins Analytical) and stainless steel frit (Upchurch Scientific). Chromatography was performed at room temperature. The flow rate was 0.5 ml/min. Injection volume was 50 μL. Gradient elution was performed using a mobile phase of 20 mM aqueous AF pH 4.5 buffer with increasing amounts of acetonitrile. The API 365 was operated at 365° C. in a multiple reaction monitoring mode, set to monitor specific analyte parent-daughter ion pairs. Integration of chromatograms was performed by MacQuant software (PE Sciex) and quantitation of each analyte obtained by comparison to previously obtained calibration curves. Daunorubicin was used as an internal standard in all cases.
For the calculation of percent of administered dose, plasma volume was estimated to be 40% of blood volume, which was calculated as 7% of animal's body weight. At 2 and 24 hours the parent compound was detected in urine at 3.9% and 15.0% of the administered dose, showing that the kidney is a major organ of excretion for the prodrug (FIG. 17).
Plasma samples were obtained at 1 and 4 hours from separate mice. Urine was collected at 2 and 24 hours post administration from pairs of mice in metabolic cages. The plasma and urine samples were prepared and analyzed as described in Example 17.

normal ICR mice = test: Second single dose Maximum Tolerated Dose (SD-MTD) study, 49 days; conditions: for SD-MTD Molar Ratio (Dox=): relative to doxorubicin on a molar basis
Method: In a second single dose Maximum Tolerated Dose (SD-MTD) study, groups of five normal ICR mice were administered intravenous bolus doses of Suc-βAla-Leu-Ala-Leu-Dox. The mice were observed daily for 49 days and body weights measured twice weekly.
In a second single dose Maximum Tolerated Dose (SD-MTD) study, groups of five normal ICR mice were administered intravenous bolus doses of Suc-Leu-Ala-Leu-Dox. The mice were observed daily for 49 days and body weights measured twice weekly.
In a second single dose Maximum Tolerated Dose (SD-MTD) study, groups of five normal ICR mice were administered intravenously bolus doses of Suc-Ile-Ala-Leu-Dox. The mice were observed daily for 49 days and body weights measured twice weekly.
In a second single dose Maximum Tolerated Dose (SD-MTD) study, groups of five normal ICR mice were administered intravenous bolus doses of Suc-βAla-Ile-Ala-Leu-Dox. The mice were observed daily for 49 days and body weights measured twice weekly.

Porcine Kidney CD10 = test: Hydrolysis by purified CD10; format: biochemical; conditions: for % hydrolysis/10 hr: 12.5 μg/mL, 37° C., pH 7.4, product Leu-doxorubicin; for Fraction hydrolyzed relative to standard: standard Suc-βAla-Leu-Ala-Leu-Dox
Method: Reaction products were analyzed by HPLC with fluorescence detection. Rates were essentially linear over the incubation period. The observed product was Leu-doxorubicin.

[3] = tested on: LNCaP prostate carcinoma xenograft; test: LNCaP prostate carcinoma xenograft in nude mice, Q7D × 3 (Examples 30, 31); conditions: for Toxic Endpoint: >20% body weight loss; for Cancer Endpoint: tumors reaching 1000 mg
Method: In this model, 7.5 million LNCaP cells resuspended in 0.1 ml of phosphate buffered saline and 0.1 ml of Matrigel (Becton Dickinson) were injected into the side of male nude mice fed on high fat diet.

SMILES: CC[C@H](C)[C@H](NC(=O)CCC(=O)O)C(=O)N[C@@H](C)C(=O)N[C@@H](CC(C)C)C(=O)N[C@H]1C[C@H](O[C@H]2C[C@](O)(C(=O)CO)Cc3c(O)c4c(c(O)c32)C(=O)c2c(OC)cccc2C4=O)O[C@@H](C)[C@H]1O [Suc-Ile-Ala-Leu-Dox]
- pIC50 (Namalwa cells (CD10pos)): 5.19
- Ratio Ball-1:Namalwa (Namalwa cells (CD10pos)): 4
- Major Plasma Metabolite [1]: Leu-Dox
- Plasma AUC0-6 hr of AL-Dox or AG-Dox* [1]: 1.0 µM·h
- Plasma AUC0-6 hr of L-Dox or G-Dox* [1]: 6.2 µM·h
- Plasma AUC0-6 hr of Dox [1]: 0.9 µM·h
- dose excreted ([2]; mouse, in vivo, after Suc-Ile-Ala-Leu-Dox 117 mg/kg, collected 0-2 hours, read-out: Urine (% adm. dose) 2 hr): 3.9%
- dose excreted ([2]; mouse, in vivo, after Suc-Ile-Ala-Leu-Dox 117 mg/kg, collected 2-24 hours, read-out: Urine (% adm. dose) 24 hr): 15%
- SD-MTD (normal ICR mice; intravenous bolus, Day 49): 94 mg/kg
- SD-MTD Molar Ratio (Dox=) (normal ICR mice): 3.5
- % hydrolysis/10 hr (Porcine Kidney CD10): 12.5 % hydrolysis/10 hr
- Fraction hydrolyzed relative to standard (Porcine Kidney CD10): 1.1

SMILES: COc1cccc2c1C(=O)c1c(O)c3c(c(O)c1C2=O)C[C@@](O)(C(=O)CO)C[C@@H]3O[C@H]1C[C@H](NC(=O)[C@H](CC(C)C)NC(=O)[C@H](C)NC(=O)[C@H](CC(C)C)NC(=O)CCNC(=O)CCC(=O)O)[C@H](O)[C@H](C)O1 [Suc-βAla-Leu-Ala-Leu-Dox]
- Ratio Ball-1:Namalwa (Namalwa cells (CD10pos)): 3
- Major Plasma Metabolite [1]: Ala-Leu-Dox
- TGI D22 ([3]; 32 mg/kg (18 Dox equi) Q7D × 3): 82.8 ± 27.7%
- Tumor Weight (mg) D22 ([3]; 32 mg/kg (18 Dox equi) Q7D × 3): 116.3 ± 30.2 mg
- Survivor D36 ([3]; 32 mg/kg Q7D × 3, N 8): 8**
- Toxic Endpoint ([3]; 32 mg/kg Q7D × 3): 0
- Cancer Endpoint ([3]; 32 mg/kg Q7D × 3): 0
- Toxic Endpoint ([3]; 40 mg/kg Q7D × 3): 0
- Cancer Endpoint ([3]; 40 mg/kg Q7D × 3): 0
- TGI D22 ([3]; 50 mg/kg (28 Dox equi) Q7D × 3): 78.8 ± 27.5%
- Tumor Weight (mg) D22 ([3]; 50 mg/kg (28 Dox equi) Q7D × 3): 143.4 ± 19.0 mg
- Survivor D36 ([3]; 50 mg/kg Q7D × 3, N 8): 8**
- Toxic Endpoint ([3]; 50 mg/kg Q7D × 3): 0
- Cancer Endpoint ([3]; 50 mg/kg Q7D × 3): 0
- maximal loss of group mean adjusted body weight ([3]; all three doses (32, 40, 50 mg/kg) Q7D × 3, to Day 36): ≤ 3%
- mortality (normal ICR mice; 75 mg/kg dose group, by Day 35): 40%
- % hydrolysis/10 hr (Porcine Kidney CD10): 10.9 % hydrolysis/10 hr
- Fraction hydrolyzed relative to standard (Porcine Kidney CD10): 1.0

SMILES: CC[C@H](C)[C@H](NC(=O)CCNC(=O)CCC(=O)O)C(=O)N[C@@H](C)C(=O)N[C@@H](CC(C)C)C(=O)N[C@H]1C[C@H](O[C@H]2C[C@](O)(C(=O)CO)Cc3c(O)c4c(c(O)c32)C(=O)c2c(OC)cccc2C4=O)O[C@@H](C)[C@H]1O [Suc-βAla-Ile-Ala-Leu-Dox]
- Ratio Ball-1:Namalwa (Namalwa cells (CD10pos)): 172
- Major Plasma Metabolite [1]: Leu-Dox
- Plasma AUC0-6 hr of AL-Dox or AG-Dox* [1]: 0.5 µM·h
- Plasma AUC0-6 hr of L-Dox or G-Dox* [1]: 8.5 µM·h
- Plasma AUC0-6 hr of Dox [1]: 1.5 µM·h
- Tumor Weight (mg) D22 ([3]; 40 mg/kg (22 Dox equi) Q7D × 3): D22: 152.1 ± 19.3 mg
- TGI D22 ([3]; 40 mg/kg (22 Dox equi) Q7D × 3, listed as Suc-bAla-Ile-Ala-Leu-Dox): 77.5 ± 27.5%
- Survivor D36 ([3]; 40 mg/kg Q7D × 3, N 8): D36: 8**
- Toxic Endpoint ([3]; 40 mg/kg Q7D × 3): 0
- Cancer Endpoint ([3]; 40 mg/kg Q7D × 3): 0
- dose excreted ([2]; mouse, in vivo, Urine (% adm. dose) 2 hr): 12.7%
- dose excreted ([2]; mouse, in vivo, Urine (% adm. dose) 24 hr): 4.81%
- animals euthanized due to weight loss or paralysis (normal ICR mice; 100 mg/kg, by Day 21, groups of five): three
- SD-MTD Molar Ratio (Dox=) (normal ICR mice): 2.6
- % hydrolysis/10 hr (Porcine Kidney CD10): 22.1 % hydrolysis/10 hr
- Fraction hydrolyzed relative to standard (Porcine Kidney CD10): 2.0

SMILES: COc1cccc2c1C(=O)c1c(O)c3c(c(O)c1C2=O)C[C@@](O)(C(=O)CO)C[C@@H]3O[C@H]1C[C@H](N)[C@H](O)[C@H](C)O1 [Doxorubicin, reference compound]
- pIC50 (Namalwa cells (CD10pos)): 8.00
- TGI D22 ([3]; 4 mg/kg Q7D × 3): 52.2 ± 28.8%
- Tumor Weight (mg) D22 ([3]; 4 mg/kg Q7D × 3): 323.8 ± 60.8 mg
- loss of group mean adjusted body weight ([3]; 4 mg/kg Q7D × 3, Day 22): about 7%
- Survivor D36 ([3]; 4 mg/kg Q7D × 3, N 8): D36: 3
- Toxic Endpoint ([3]; 4 mg/kg Q7D × 3): 1
- Cancer Endpoint ([3]; 4 mg/kg Q7D × 3): 4
- Urine (% adm. dose) 2 hr ([2]; after Suc-Ile-Ala-Leu-Dox 117 mg/kg, collected 0-2 hours): 0.06 % adm. dose
- Urine (% adm. dose) 24 hr ([2]; after Suc-Ile-Ala-Leu-Dox 117 mg/kg, collected 2-24 hours): 0.36 % adm. dose
- Plasma (% adm. dose) 4 hr ([2]; mouse, in vivo, 4 h): 0.00 % adm. dose
